Here are results for 16 compounds from US20240217967A1, “INDOLINE DERIVATIVES AS DDRS INHIBITORS” (CHIESI FARMACEUTICI S.P.A., priority 2021, published 2024).

A value given as a limit tells only on which side of the number the result lay.

For test [1], the target named is T1, DDR2 (Homo sapiens, UniProt Q16832).
T1 sequence (Q16832 22-855): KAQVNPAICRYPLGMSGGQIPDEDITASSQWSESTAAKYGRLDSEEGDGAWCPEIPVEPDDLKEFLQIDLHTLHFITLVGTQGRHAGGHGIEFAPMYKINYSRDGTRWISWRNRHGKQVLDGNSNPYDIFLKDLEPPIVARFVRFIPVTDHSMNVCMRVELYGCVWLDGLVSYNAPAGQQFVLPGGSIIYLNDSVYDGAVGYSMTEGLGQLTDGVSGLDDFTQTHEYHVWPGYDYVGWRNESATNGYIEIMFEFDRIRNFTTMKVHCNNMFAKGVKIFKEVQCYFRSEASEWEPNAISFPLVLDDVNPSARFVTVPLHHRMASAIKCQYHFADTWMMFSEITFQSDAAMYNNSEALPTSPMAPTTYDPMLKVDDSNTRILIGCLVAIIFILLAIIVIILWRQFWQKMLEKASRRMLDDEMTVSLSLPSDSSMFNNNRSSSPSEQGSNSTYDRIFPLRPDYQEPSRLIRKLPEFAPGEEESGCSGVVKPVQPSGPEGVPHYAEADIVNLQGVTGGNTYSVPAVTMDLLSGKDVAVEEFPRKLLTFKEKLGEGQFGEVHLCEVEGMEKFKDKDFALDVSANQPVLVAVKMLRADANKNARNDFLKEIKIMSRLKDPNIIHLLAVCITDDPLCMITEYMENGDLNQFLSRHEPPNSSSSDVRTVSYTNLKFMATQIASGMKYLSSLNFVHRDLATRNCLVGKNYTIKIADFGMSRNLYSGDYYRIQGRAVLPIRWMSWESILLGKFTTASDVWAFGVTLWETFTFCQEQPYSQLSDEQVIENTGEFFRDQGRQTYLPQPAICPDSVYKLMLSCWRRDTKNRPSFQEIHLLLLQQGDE
Description: DDR2 LanthaScreen Europium Kinase Binding assay. As to conditions: binding affinity; IC50 converted in Ki using Cheng-Prusoff; read-out: Ki DDR2. The essentials:
(§1)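 Binding by TR-FRET tracer displacement: compounds incubated 1 h at room temperature with 5 nM DDR1 plus 20 nM Kinase Tracer 178, or 5 nM DDR2 plus 10 nM tracer, and 2 nM Eu anti-GST antibody in pH 7.5 HEPES/MgCl2/EGTA/BRIJ35 buffer. 665/615 nm ratio gave four-parameter IC50, converted to Ki via Cheng-Prusoff.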
Background: Time-resolved FRET reads energy transfer from a long-lived donor to a nearby acceptor.

The target of test [2] is T2, DDR1 (Homo sapiens, UniProt Q08345). Description: DDR1 cell based assay (PathHunter U2OS DDR1, collagen II stimulation). The following applies: U2OS-DDR1 cells, bovine Type II Collagen stimulation. Summed up:
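Receptor activation measured by enzyme-fragment complementation luminescence in engineered U2OS cells. Compound added 30 min before overnight challenge with 20 μg/ml bovine collagen II; data scaled between vehicle and collagen-stimulated controls, IC50 derived by four-parameter variable-slope fitting.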

For test [3], the target named is T1, DDR2. Nature of the test: DDR2 cell based assay (phospho-ELISA in HEK293T-DDR2 recombinant cells, collagen II stimulation). As to conditions: bovine Type II Collagen stimulation. The protocol: The inhibition of DDR2 phosphorylation by compounds was evaluated in HEK293T-DDR2 recombinant cells by phospho-ELISA assay. Briefly, HEK293T-DDR2 cells were seeded in poly-D-lysine-coated 24-well plates at a density of 250.000 cells/well and incubated for 1.5 hours at 37° C. and 5% CO2 in DMEM+10% FBS. After that, the medium was changed to serum-free DMEM and cells were incubated for 3 hours. Then. test compounds were added at different concentrations 30 minutes before stimulation with bovine Type II Collagen at 50 μg/ml for further 3 hours. For DDR2 phospho-ELISA assay (DuoSet IC Human Phospho-DDR2; R&D Systems), protein extracts were obtained by adding 60 μl/well of lysis buffer prepared according to the manufacturer's instructions. Protein concentration in the samples was determined by BCA assay and the levels of phospho-DDR2 were determined following R&D Systems indications. Raw data were normalized to maximal inhibition control (0% for normalization) and positive control (100% for normalization; cells treated with […] collagen II) and IC50 parameters were calculated in GraphPad Prism 8.0 software, using sigmoidal dose-response curve fitting with variable slope.
(In general: In an ELISA, binding on a coated surface is turned into a signal by an enzyme label.)

The target of test [4] is T2, DDR1. Description: DDR1 LanthaScreen Europium Kinase Binding assay. The following applies: binding affinity; IC50 converted in Ki using Cheng-Prusoff; read-out: Ki DDR1. Summed up:
as §1

T2 sequence (Q08345 19-913): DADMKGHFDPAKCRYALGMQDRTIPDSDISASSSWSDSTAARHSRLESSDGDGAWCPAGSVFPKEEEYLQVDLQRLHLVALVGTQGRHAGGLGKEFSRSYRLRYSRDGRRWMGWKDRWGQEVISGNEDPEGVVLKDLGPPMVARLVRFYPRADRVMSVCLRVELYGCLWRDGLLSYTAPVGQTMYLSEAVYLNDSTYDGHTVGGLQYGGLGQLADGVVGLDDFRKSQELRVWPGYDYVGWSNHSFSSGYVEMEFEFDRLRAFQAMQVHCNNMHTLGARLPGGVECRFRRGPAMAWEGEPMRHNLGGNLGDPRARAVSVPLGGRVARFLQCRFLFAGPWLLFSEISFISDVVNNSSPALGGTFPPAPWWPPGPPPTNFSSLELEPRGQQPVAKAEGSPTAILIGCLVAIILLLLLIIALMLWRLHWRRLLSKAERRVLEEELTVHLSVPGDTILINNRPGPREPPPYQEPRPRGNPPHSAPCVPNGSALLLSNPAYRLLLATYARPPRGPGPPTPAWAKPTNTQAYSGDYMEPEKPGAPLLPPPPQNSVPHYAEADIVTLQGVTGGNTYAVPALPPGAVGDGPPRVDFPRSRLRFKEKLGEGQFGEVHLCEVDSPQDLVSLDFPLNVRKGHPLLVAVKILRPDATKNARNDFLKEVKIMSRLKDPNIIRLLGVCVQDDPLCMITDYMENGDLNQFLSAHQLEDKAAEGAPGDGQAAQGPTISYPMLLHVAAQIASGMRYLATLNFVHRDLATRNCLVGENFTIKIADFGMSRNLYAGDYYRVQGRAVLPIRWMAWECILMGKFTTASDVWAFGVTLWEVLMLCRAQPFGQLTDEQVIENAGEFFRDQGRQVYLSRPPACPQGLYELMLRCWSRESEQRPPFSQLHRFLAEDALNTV

For the compound `Cc1cn(-c2cc(NC(=O)c3ccc4c(c3)N(Cc3cnc5cnccn35)CC4C)cc(C(F)(F)F)c2)cn1` (single isomer, unassigned) [Example 27, 1-(imidazo[1,2-a]pyrazin-3-ylmethyl)-3-methyl-N-(3-(4-methyl-1H-imidazol-1-yl)-5-(trifluoromethyl)phenyl)indoline-6-carboxamide], the Ki at DDR2 [1] and at DDR1 [4] was below 25 nM each time. The IC50 at DDR1 [2] and at DDR2 [3] was below 25 nM throughout.

For `CC1CN(Cc2cnc3[nH]ncc3c2)c2cc(C(=O)Nc3cccc(C(F)(F)F)c3)ccc21` (single isomer, unassigned) [Example 34, 1-((1H-pyrazolo[3,4-b]pyridin-5-yl)methyl)-3-methyl-N-(3-(trifluoromethyl)phenyl)indoline-6-carboxamide], the inhibition constant (Ki) at DDR2 [1] and on DDR1 [4] was below 25 nM throughout. Besides, the values for the half-maximal inhibitory concentration (IC50) on DDR1 [2] and on DDR2 [3] were below 25 nM and 25 to 50 nM, respectively.

`Cc1cn(-c2cc(NC(=O)c3ccc4c(c3)N(Cc3cnc5ccccn35)CC4)cc(C(F)(F)F)c2)cn1` [Example 1, 1-(imidazo[1,2-a]pyridin-3-ylmethyl)-N-(3-(4-methyl-1H-imidazol-1-yl)-5-(trifluoromethyl)phenyl)indoline-6-carboxamide]: the Ki on DDR2 [1] and on DDR1 [4] was below 25 nM each time. Further, the IC50 (usually the point on the concentration scale where inhibition reaches its midpoint) was below 25 nM against DDR1 [2] and 50 to 80 nM on DDR2 [3].

With `Cc1cn(-c2cc(NC(=O)c3ccc4c(c3)N(Cc3cnc5[nH]ccc5c3)CC4)cc(C(F)(F)F)c2)cn1` [Example 2, 1-((1H-pyrrolo[2,3-b]pyridin-5-yl)methyl)-N-(3-(4-methyl-1H-imidazol-1-yl)-5-(trifluoromethyl)phenyl)indoline-6-carboxamide], the Ki at DDR2 [1] and on DDR1 [4] was below 25 nM throughout. Further, the IC50 at DDR1 [2] and at DDR2 [3] was below 25 nM each time.

For the compound `Cc1cn(-c2cc(NC(=O)c3ccc4c(c3)N(Cc3cnc5cnccn35)CC4)cc(C(F)(F)F)c2)cn1` [Example 3, 1-(imidazo[1,2-a]pyrazin-3-ylmethyl)-N-(3-(4-methyl-1H-imidazol-1-yl)-5-(trifluoromethyl)phenyl)indoline-6-carboxamide], the inhibition constant Ki on DDR2 [1] and at DDR1 [4] was below 25 nM throughout. In addition, the values for the IC50 against DDR1 [2] and on DDR2 [3] were below 25 nM and 50 to 80 nM, respectively.

As for `Cc1cn(-c2cc(NC(=O)c3ccc4c(c3)N(Cc3cnc5[nH]ncc5c3)CC4)cc(C(F)(F)F)c2)cn1` [Example 6, 1-((1H-pyrazolo[3,4-b]pyridin-5-yl)methyl)-N-(3-(4-methyl-1H-imidazol-1-yl)-5-(trifluoromethyl)phenyl)indoline-6-carboxamide], the inhibition constant (Ki) on DDR2 [1] and at DDR1 [4] was below 25 nM throughout. In addition, the results for the IC50 against DDR1 [2] and at DDR2 [3] were below 25 nM and 50 to 80 nM, respectively.

Turning to `Cc1cn(-c2cc(NC(=O)c3ccc4c(c3)N(Cc3cnc5[nH]nc(C)c5c3)CC4)cc(C(F)(F)F)c2)cn1` [Example 7, N-(3-(4-methyl-1H-imidazol-1-yl)-5-(trifluoromethyl)phenyl)-1-((3-methyl-1H-pyrazolo[3,4-b]pyridin-5-yl)methyl)indoline-6-carboxamide], the inhibitory constant (Ki) on DDR2 [1] and at DDR1 [4] was below 25 nM throughout. The results for the IC50 at DDR1 [2] and at DDR2 [3] were below 25 nM and 25 to 50 nM, respectively.

Consider `CN1CCN(Cc2cc(NC(=O)c3ccc4c(c3)N(Cc3cnc5[nH]ccc5c3)CC4)cc(C(F)(F)F)c2)CC1` [Example 9, 1-((1H-pyrrolo[2,3-b]pyridin-5-yl)methyl)-N-(3-((4-methylpiperazin-1-yl)methyl)-5-(trifluoromethyl)phenyl)indoline-6-carboxamide], for which the inhibition constant (Ki) at DDR2 [1] and on DDR1 [4] was below 25 nM throughout. Also, the concentration for half-maximal inhibition (IC50) against DDR1 [2] and on DDR2 [3] was below 25 nM each time.

As to `Cc1cn(-c2cc(C(=O)Nc3ccc4c(c3)N(C(=O)c3cnc5[nH]ncc5c3)CC4)cc(C(F)(F)F)c2)cn1` [Example 21, N-(1-(1H-pyrazolo[3,4-b]pyridine-5-carbonyl)indolin-6-yl)-3-(4-methyl-1H-imidazol-1-yl)-5-(trifluoromethyl)benzamide], the inhibition constant Ki at DDR2 [1] and on DDR1 [4] was below 25 nM in each case. Further, the half-maximal inhibitory concentration (IC50) was 25 to 50 nM against DDR1 [2] and below 25 nM at DDR2 [3].

On to `Cc1cn(-c2cc(C(=O)Nc3ccc4c(c3)N(Cc3cnc5cnccn35)CC4)cc(C(F)(F)F)c2)cn1` [Example 22, N-(1-(imidazo[1,2-a]pyrazin-3-ylmethyl)indolin-6-yl)-3-(4-methyl-1H-imidazol-1-yl)-5-(trifluoromethyl)benzamide], for which the Ki at DDR2 [1] and at DDR1 [4] was below 25 nM each time. Further, the IC50 was below 25 nM on DDR1 [2] and 25 to 50 nM at DDR2 [3].

Turning to `Cc1cn(-c2cc(NC(=O)c3ccc4c(c3)N(C(=O)c3cnc5[nH]ncc5c3)CC4C)cc(C(F)(F)F)c2)cn1` (stereo not shown) [Example 28, 3-methyl-N-(3-(4-methyl-1H-imidazol-1-yl)-5-(trifluoromethyl)phenyl)-1-(1H-pyrazolo[3,4-b]pyridine-5-carbonyl)indoline-6-carboxamide], the Ki (in general, the equilibrium dissociation constant of an inhibitor or competing ligand from its target) at DDR2 [1] is 25 to 50 nM; on DDR1 [4], below 25 nM. Moreover, the results for the concentration for half-maximal inhibition (IC50) on DDR1 [2] and at DDR2 [3] were below 25 nM and 25 to 50 nM, respectively.

On to `CC1CN(Cc2cnc3cnccn23)c2cc(C(=O)Nc3cccc(C(F)(F)F)c3)ccc21` (stereo not shown) [Example 31, 1-(imidazo[1,2-a]pyrazin-3-ylmethyl)-3-methyl-N-(3-(trifluoromethyl)phenyl)indoline-6-carboxamide], for which the Ki on DDR2 [1] and on DDR1 [4] was below 25 nM throughout. Moreover, the IC50 was below 25 nM against DDR1 [2] and 50 to 80 nM on DDR2 [3].

As to `O=C(Nc1cccc(C(F)(F)F)c1)c1ccc2c(c1)N(Cc1cnc3[nH]ncc3c1)CC2` [Example 35, 1-((1H-pyrazolo[3,4-b]pyridin-5-yl)methyl)-N-(3-(trifluoromethyl)phenyl)indoline-6-carboxamide], the inhibition constant (Ki) at DDR2 [1] and at DDR1 [4] was below 25 nM each time. The IC50 against DDR1 [2] and at DDR2 [3] was below 25 nM in each case.

`CC(C)(c1cc(NC(=O)c2ccc3c(c2)N(Cc2cnc4[nH]ncc4c2)CC3)no1)C(F)(F)F` [Example 36, 1-((1H-pyrazolo[3,4-b]pyridin-5-yl)methyl)-N-(5-(1,1,1-trifluoro-2-methylpropan-2-yl)isoxazol-3-yl)indoline-6-carboxamide]: the inhibition constant Ki at DDR2 [1] and on DDR1 [4] was below 25 nM each time. For the same compound, the concentration for half-maximal inhibition (IC50) against DDR1 [2] was below 25 nM; on DDR2 [3], 50 to 80 nM.

Regarding `O=C(Nc1cccc(OC(F)(F)F)c1)c1ccc2c(c1)N(Cc1cnc3[nH]ncc3c1)CC2` [Example 37, 1-((1H-pyrazolo[3,4-b]pyridin-5-yl)methyl)-N-(3-(trifluoromethoxy)phenyl)indoline-6-carboxamide], the Ki at DDR2 [1] and on DDR1 [4] was below 25 nM throughout. Besides, the half-maximal inhibitory concentration (IC50) against DDR1 [2] and on DDR2 [3] was below 25 nM each time.

As to `Cc1cn(-c2cc(C(=O)Nc3ccc4c(c3)N(Cc3cnc5[nH]ncc5c3)CC4)cc(C(F)(F)F)c2)cn1` [Example 38, N-(1-((1H-pyrazolo[3,4-b]pyridin-5-yl)methyl)indolin-6-yl)-3-(4-methyl-1H-imidazol-1-yl)-5-(trifluoromethyl)benzamide], the Ki at DDR2 [1] and on DDR1 [4] was below 25 nM each time. The IC50 was below 25 nM against DDR1 [2] and 50 to 80 nM at DDR2 [3].
